Laboratory results as given in the NIST ThermoML archive (doi:10.1021/je0501585).
Numbers after ± are expanded uncertainties.

Experiments:
[1] = Liquid; for viscosity / speed of sound: 101 kPa; for viscosity: Capillary tube (Ostwald / Ubbelohde) method; for speed of sound: Linear variable-path acoustic interferometer; for mass density: 101.33 kPa, Pycnometric method
[2] = xn = mol fraction of the nth substance listed; conditions: 101 kPa, Liquid, x2 = 0; for viscosity: Capillary tube (Ostwald / Ubbelohde) method; for excess molar volume: Direct dilatometry; for speed of sound: Linear variable-path acoustic interferometer

Row | SMILES | viscosity ([1]; 303.15 K) [mPa·s] | speed of sound ([1]; 303.15 K) [m/s] | mass density ([1]; 303.15 K) [kg/m3] | viscosity ([1]; 308.15 K) [mPa·s] | speed of sound ([1]; 308.15 K) [m/s] | mass density ([1]; 308.15 K) [kg/m3] | viscosity ([1]; 313.15 K) [mPa·s] | speed of sound ([1]; 313.15 K) [m/s] | mass density ([1]; 313.15 K) [kg/m3] | vapor or sublimation pressure ([1]; 445.7 K) [kPa] | viscosity ([2]; 303.15 K) [mPa·s] | excess molar volume ([2]; 303.15 K) [m3/mol] | speed of sound ([2]; 303.15 K) [m/s] | viscosity ([2]; 308.15 K) [mPa·s] | excess molar volume ([2]; 308.15 K) [m3/mol] | speed of sound ([2]; 308.15 K) [m/s] | viscosity ([2]; 313.15 K) [mPa·s] | excess molar volume ([2]; 313.15 K) [m3/mol] | speed of sound ([2]; 313.15 K) [m/s] | vapor or sublimation pressure ([1]; 410 K) [kPa]
1 | CCCCCCCCCC [decane] | 0.786 ± 0.021 | 1210 ± 5.2 | 722.3 ± 1.9 | 0.717 ± 0.019 | 1189 ± 5.2 | 718.2 ± 1.9 | 0.694 ± 0.019 | 1175.3 ± 5.2 | 714.7 ± 1.9 | 97.3 ± 4.9 | – | – | – | – | – | – | – | – | – | –
2 | CCCCCCCCCC [decane] + Cc1ccc(C)cc1 | – | – | – | – | – | – | – | – | – | – | 0.786 ± 0.021 | 0 ± 6e-09 | 1210 ± 5.2 | 0.717 ± 0.019 | 0 ± 6e-09 | 1189 ± 5.2 | 0.694 ± 0.019 | 0 ± 6e-09 | 1175.3 ± 5.2 | –
3 | Cc1ccc(C)cc1 [1,4-dimethylbenzene] | 0.566 ± 0.016 | 1283.7 ± 5.2 | 852.3 ± 2.3 | 0.537 ± 0.015 | 1271 ± 5.2 | 847.9 ± 2.3 | 0.513 ± 0.015 | 1260 ± 5.2 | 843.6 ± 2.2 | – | – | – | – | – | – | – | – | – | – | 97.3 ± 4.9
